Data as given in article PMC11291853, “Haemodynamic, hormonal and renal actions of osteocrin in normal sheep” (Experimental Physiology, 2024).
Where no end group is shown, it is not given here.

Assays:
[1] = Plasma OSTN concentration, metabolic clearance rate and half-life during and after stepped I.V. infusion (OSTN RIA); assay type: in vivo, sheep; settings: mean ± SD; for level at time molar at 1 h: sheep, sheep n = 8, RIA
Protocol: (§1) Sheep received I.V. infusions of increasing doses of ovine proOSTN (83–133), the putative 51 aa circulating peptide (at 2.5, 25 and 250 pmol/kg/min for 1 h each; Mimotopes, Melbourne, Victoria, Australia) and a vehicle control (0.9% saline) administered on separate days, ≥1 day apart, in a balanced random order.
Venous blood samples were obtained at 30 min and immediately preceding commencement of the first infusion (baseline) and at 30 min intervals for the duration of the study day. Samples were taken into tubes on ice, centrifuged at 4°C and stored at −20°C before assaying. Following extraction over C18 SepPac cartridges (Waters Corp., Milford, MA, USA), plasma concentrations of cGMP (Charles et al., [1990]), ANP (Charles et al., [1990]), BNP (Pemberton et al., [1997]), CNP (Charles et al., [1995]) and N‐terminal proCNP (NTproCNP) (Wilson et al., [2015]), were measured by radioimmunoassay (RIA) as previously described. Non‐extracted plasma renin activity (PRA) (Dunn & Espiner, [1976]) and aldosterone (Lun et al., [1983]) were measured as previously described. Cyclic AMP was measured by enzyme‐linked immunosorbent assay (catalogue no. ADI‐900‐163; Enzo Life Sciences, Farmingdale, NY, USA). For each analyte, all samples from individual animals were measured in the same assay to avoid interassay variability. Haematocrit concentrations were measured with every blood sample taken.
Osteocrin concentrations in the infusate were measured to calculate the infusion rate and metabolic clearance rate (MCR) of the peptide (MCR = infusion rate/plateau − baseline level).
Human proOSTN (83–112) […] was iodinated using 0.5 mCi Na^125I in the presence of […] chloramine‐T in […] phosphate buffer, pH 7.5, for 20 s, followed by the addition of 50 mg cysteine, 25 mg BSA and 20 mg KI in […] buffer. The resulting mixture was loaded onto a 10 cm RP300 Brownlee column and eluted with a gradient from 0% to 60% acetonitrile in 49 mmol/L KH2PO4 buffer, pH 2.9, over 30 min at 1 mL/min, collecting 0.5 mL fractions. The fraction containing the major peak of radioactive [^125I]‐proOSTN (83–112) was used in the RIA. Peptide standards were made from synthetic human proOSTN (83–133) taking into account the purity data supplied. All standards, sample extracts, antisera and tracer solutions were made up in pH 7.4 assay buffer (0.1% BSA in 0.1 M phosphate buffer). Fifty microlitres of sample extract or 1−1000 pmol/L of human proOSTN (83–133) standard (all in duplicate) were incubated with 50 μL antiserum H‐028‐68 (Phoenix Pharmaceuticals) at a dilution of 1:20,000 for 24 h at 4°C, followed by addition of 50 μL of tracer solution [^125I]‐proOSTN (83–112) containing 3000 cpm for an additional 24 h at 4°C. Bound and free [^125I]‐proOSTN (83–112) were separated by a solid‐phase second antibody method (Sac‐Cell, Donkey‐Anti Rabbit; IDS, UK), and the radioactivity in the bound [^125I]‐proOSTN (83–112) pellet was measured in a PerkinElmer Wizard2 10‐Detector Gamma Counter. Ovine concentrations of OSTN were extrapolated from the human standards, taking into account ovine proOSTN (83–133) cross‐reactivity. Ovine proOSTN (83–112) cross‐reactivity in the ANP, BNP and CNP RIA was <0.005%.

[2] = test system: normal conscious sheep; experiment: Plasma sodium, potassium and creatinine during stepped OSTN infusion; assay type: in vivo; settings: sheep n = 8, mean ± SD
Protocol: as §1
(§2) Blood samples for analysis of plasma sodium, potassium and creatinine concentrations were taken immediately before the first dose (baseline), then hourly throughout the study. Urine volume and samples for the measurement of urine cGMP, urine cAMP, sodium, potassium and creatinine excretion were collected hourly throughout the study protocol. To estimate the contribution of renal tissues to urine cGMP/cAMP excretion, nephrogenous cGMP/cAMP was calculated using the formula [urine cG(A)MP − (glomerular filtration rate × plasma cG(A)MP/urine volume × min] (Hirata et al., [1990]).

[3] = test system: normal conscious sheep; experiment: Renal responses (hourly urine collections, nephrogenous cGMP/cAMP) to stepped OSTN infusion; assay type: in vivo; settings: for Urine cAMP / Urine creatinine / Urine potassium: hourly urine collection, sheep n = 8, mean ± SD
Protocol: Eight Coopworth ewes (4–6 years; 42–60 kg; Lincoln University Farm, New Zealand) were instrumented under general anaesthesia (induced by 0.5 mg/kg diazepam I.V. and 4 mg/kg ketamine I.V. and maintained with a mixture of isoflurane and oxygen) and using approved peri‐ and postoperative antibiotics (20 mg/kg cephazolin I.V.; 6.6–20 mg/kg oxytetracycline I.V.) and analgesia (4 mg/kg carprofen I.V.). Sheep were instrumented via a 50‐mm‐long neck incision, allowing cannulation of the left carotid artery (16 gauge Angiocath; Becton Dickinson, Sandy, UT, USA) for direct measurement of mean arterial pressure (MAP) and heart rate (HR). A polyethylene catheter was placed in the left jugular vein for blood sampling and recording of central venous pressure (CVP). A Swan–Ganz thermodilution catheter (Edwards Life Sciences, Irvine, CA, USA) was placed in the pulmonary artery via the jugular vein for the measurement of cardiac output (CO). The urinary bladder was catheterized per urethra for timed urine collections (Charles, Espiner, Nicholls et al., [1996]). Animals recovered for ≥5 days before commencing the study protocol.
as §1, §2

[4] = 1 h, end of OSTN 2.5 pmol/kg/min I.V.
[5] = 2 h, end of OSTN 25 pmol/kg/min I.V.
[6] = 3 h, end of OSTN 250 pmol/kg/min I.V.
[7] = 4 h, 1 h after end of infusions
[8] = 5 h, 2 h after end of infusions

For “SFSGFGSPLDRLSAGSVSHKGKQRKVVDHPKRRFGIPMDRIGRNRLSNSRG [OSTN]”, the half-life ([1]; Coopworth, plasma, iv, normal sheep, after end of 250 pmol/kg/min infusion, samples at 1-15 min, read-out: Osteocrin plasma half-life) was 5.7 ± 1.8 min, the level at time molar at 1 h ([1]; Coopworth, plasma, iv, 2.5 pmol/kg/min, end of 60 min I.V. infusion at 2.5 pmol/kg/min) was 0.0287 ± 0.008 nM and the level at time molar at 1 h ([1]; Coopworth, plasma, iv, 25 pmol/kg/min, end of 60 min I.V. infusion at 25 pmol/kg/min) was 0.48 ± 0.195 nM. For the same sequence, the level at time molar at 1 h ([1]; Coopworth, plasma, iv, 250 pmol/kg/min, end of 60 min I.V. infusion at 250 pmol/kg/min) was 6.09 ± 0.75 nM, the Osteocrin plasma half-life ([1]; normal sheep, after end of 250 pmol/kg/min infusion, samples at 1-15 min) was roughly 6 min and the Plasma creatinine [2, 4] was 76.6 ± 7.5 µmol/L. The Plasma potassium [2, 4] was 3.8 ± 0.3 mmol/L, the Plasma sodium [2, 4] was 147.0 ± 2.6 mmol/L and the Plasma creatinine [2, 5] was 75.6 ± 6.9 µmol/L. It also gave a Plasma potassium [2, 5] of 4.0 ± 0.5 mmol/L, a Plasma sodium [2, 5] of 147.0 ± 2.5 mmol/L and a Plasma creatinine [2, 6] of 76.4 ± 8.5 µmol/L. For the same sequence, the Plasma potassium [2, 6] was 4.0 ± 0.5 mmol/L, the Plasma sodium [2, 6] was 146.9 ± 2.4 mmol/L and the Plasma creatinine [2, 7] was 75.6 ± 8.9 µmol/L. It also gave a Plasma potassium [2, 7] of 4.1 ± 0.6 mmol/L, a Plasma sodium [2, 7] of 147.1 ± 2.2 mmol/L and a Plasma creatinine [2, 8] of 74.6 ± 8.5 µmol/L. The Plasma potassium [2, 8] was 4.3 ± 0.6 mmol/L, the Plasma sodium [2, 8] was 146.5 ± 2.1 mmol/L and the “Urine cAMP” value ([3]; 1 h, OSTN 2.5 pmol/kg/min I.V.) was 674 ± 367 pmol/h. For the same sequence, the Urine creatinine ([3]; 1 h, OSTN 2.5 pmol/kg/min I.V.) was 0.635 ± 0.100 mmol/h, the Urine potassium ([3]; 1 h, OSTN 2.5 pmol/kg/min I.V.) was 15.6 ± 3.5 mmol/h and the “Urine cAMP” value ([3]; 2 h, OSTN 25 pmol/kg/min I.V.) was 699 ± 322 pmol/h. The Urine creatinine ([3]; 2 h, OSTN 25 pmol/kg/min I.V.) was 0.593 ± 0.100 mmol/h, the Urine potassium ([3]; 2 h, OSTN 25 pmol/kg/min I.V.) was 12.7 ± 4.9 mmol/h and the “Urine cAMP” value ([3]; 3 h, OSTN 250 pmol/kg/min I.V.) was 549 ± 211 pmol/h. The Urine creatinine ([3]; 3 h, OSTN 250 pmol/kg/min I.V.) was 0.586 ± 0.200 mmol/h, the Urine potassium ([3]; 3 h, OSTN 250 pmol/kg/min I.V.) was 9.9 ± 3.6 mmol/h and the “Urine cAMP” value [3, 7] was 452 ± 219 pmol/h. The Urine creatinine [3, 7] was 0.533 ± 0.200 mmol/h, the Urine potassium [3, 7] was 7.9 ± 3.4 mmol/h and the “Urine cAMP” value [3, 8] was 891 ± 1136 pmol/h. The Urine creatinine [3, 8] was 0.542 ± 0.100 mmol/h, the Urine potassium [3, 8] was 7.4 ± 3.6 mmol/h and the “Urine sodium excretion (natriuresis)” value ([3]; stepped OSTN infusions vs vehicle, P = 0.226) was “did not increase”. The “Urinary rate (diuresis)” value ([3]; stepped OSTN infusions vs vehicle, P = 0.467) was “did not increase” and the “Urinary cGMP excretion” value ([3]; stepped OSTN infusions vs vehicle, dose-dependent, P = 0.002) was “increased”.
